The values that follow are results of earlier work, collected in patent US20240299291A1, “OPHTHALMIC PREPARATION ADMINISTERED BY EYE DROPS AND USED FOR PREVENTING AND TREATING DRY MACULAR DEGENERATION AND RETINAL LIGHT DAMAGE” (CHENGDU RUIMU BIOPHARMACEUTICALS CO., LTD., priority 2021, published 2024).

For data set [1], the system named is age-related macular degeneration (AMD). The note with it: oral metformin.
The subject of data set [2] is AMD; open-angle glaucoma.
Data set [3] concerns AMPK (adenosine mono-phosphate activated protein kinase). Particulars: mice.
Data set [4] concerns retinal light damage. Particulars: injection into the vitreous cavity of mice, up to 500 mg/kg/day, 7 days, before light damage.

For `CN(C)C(=N)N=C(N)N` [metformin], in data set [1], the “Risk of AMD in patients with type 2 diabetes versus patients who did not take metformin” value is “significantly lower”. The “Reduction of the incidence of open-angle glaucoma versus patients who did not take metformin” value in data set [2] (high-dose group (>1110 g metformin for 2 years)) is given as 25%. The “Effect on the occurrence or development of AMD” value in data set [2] (oral metformin) is listed as “may have therapeutic effect on the occurrence or development of AMD”. For the same molecule, the “AMPK activation in the retina of eyes” value in data set [3] is given as “locally activates AMPK”. Further, the “Prevention of light damage” value in data set [4] is on record as “almost completely prevent the light damage”.
